Experimental data: US12351571B2, “Substituted quinoxaline compounds as inhibitors of FGFR tyrosine kinases” (ARRAY BIOPHARMA INC., priority 2018, dated 2025)

Key:
phosphorylated FGFR3 = phosphorylated FGFR3 (Homo sapiens (Human), UniProt P22607); experiment: FGFR Enzyme Binding Assay (HTRF tracer displacement), FGFR3; conditions: 5 nM phosphorylated FGFR3, 60 minute incubation at 22° C.; read-out: FGFR3 Enz Binding IC50
Procedure: The potency of compounds inhibiting human isoforms of FGFR kinase was determined using Life Technologies' Homogeneous Time Resolved Fluorescence (HTRF)-based binding assay technology. An incubation was conducted with either 5 nM dephosphorylated FGFR1 (Array Biopharma, p1702; SEQ ID NO: 1, amino acids 458 to 765, dephosphorylated by co-expression with PTP1b (protein tyrosine phosphatase 1B)), 5 nM dephosphorylated FGFR2 (Life Technologies, Cat. No. PV4106 that had been dephosphorylated with Lambda protein phosphatase (New England Biolabs, cat #P0753)) or 5 nM phosphorylated FGFR3 (Array Biopharma, p1836; SEQ ID NO: 5, amino acids 449 to 759), 50 nM Kinase Tracer 236 (Life Technologies Cat. No. PR9078A), 2 nM Biotin-anti-6HIS (Life Technologies Cat. No. PV6090) and 2 nM Europium-Streptavidin (Life Technologies Cat. No. PV6025) along with test compound in a buffer consisting of 50 mM HEPES ((4-(2-hydroxyethyl)-1-piperazineethanesulfonic acid, pH 7.5), 5 mM MgCl2, 0.005% Triton X-100, 1 mM DTT, 1 mM NaVO4 and 2% DMSO in a final volume of 12 μL Compounds were typically prepared as a 3-fold or 4-fold serial dilution in DMSO and added to the assay to give the appropriate final concentration. After a 60 minute incubation at 22° C., the extent of tracer displacement was determined using a PerkinElmer EnVision multimode plate reader via HTRF dual wavelength detection, and the percent of control (POC) was calculated using a ratiometric emission factor. One hundred POC was determined using no test compound, and 0 POC was determined in the presence of 1 μM of an appropriate control inhibitor. A 4-parameter logistic curve was fit to the POC values as a function of the concentration of compound, and the IC50 value was the point where the best-fit curve crossed 50 POC.

[1] = molecular target: recombinant human FGFR1 catalytic domain (Homo sapiens (Human), UniProt P11362); experiment: FGFR Enzyme Activity Assay (LanthaScreen TR-FRET), FGFR1; type: biochemical; conditions: 15 μM ATP, 20 minutes incubation; read-out: FGFR1 Enz FRET IC50
recombinant human FGFR1 catalytic domain, sequence (P11362 other isoform, or with tags, fused parts or gaps): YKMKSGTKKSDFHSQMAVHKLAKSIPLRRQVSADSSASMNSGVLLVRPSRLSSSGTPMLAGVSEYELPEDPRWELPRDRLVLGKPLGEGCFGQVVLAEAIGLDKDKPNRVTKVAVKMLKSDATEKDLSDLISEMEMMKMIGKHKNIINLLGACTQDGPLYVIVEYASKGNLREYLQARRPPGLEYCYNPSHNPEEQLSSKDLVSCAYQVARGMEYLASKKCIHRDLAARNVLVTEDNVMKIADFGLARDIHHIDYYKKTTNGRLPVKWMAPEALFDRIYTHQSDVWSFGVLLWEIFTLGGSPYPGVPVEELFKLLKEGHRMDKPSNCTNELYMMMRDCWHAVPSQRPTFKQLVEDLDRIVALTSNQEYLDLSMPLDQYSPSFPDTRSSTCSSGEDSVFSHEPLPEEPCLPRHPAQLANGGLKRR
Procedure: FGFR1 kinase activity was measured by the Invitrogen LanthaScreen™ Assay technology which directly measures the amount of substrate phosphorylation by Time-resolved fluorescence energy transfer (TR-FRET) using a flourescently-labeled peptide and Europium-labeled antibody. Briefly, 200 pM His-tagged recombinant human FGFR1 catalytic domain (amino acids 308-731) (Life Technologies Cat. No. PR4660A) was incubated with 100 nM Alexa Fluor® 647-Poly-GT Peptide Substrate (Life Technologies Cat. No. PV5836) and 15 μM ATP along with test compound in a buffer consisting of 250 mM HEPES, 25 mM MgCl2, 0.05% TritonX-100, pH 7.5, and 2% DMSO. Compounds were typically prepared in a threefold serial dilution in DMSO and added to the assay to give the appropriate final concentration. After a 20 minutes incubation at 22° C., an equal volume of 2 nM LanthaScreen® Eu-PY20 Antibody (Life Technologies Cat. No. PV5691) and 10 mM EDTA was added to quench the kinase reaction and start the detection reaction. After an additional 60 minute incubation at 22° C., the reaction was measured using a PerkinElmer EnVision multimode plate reader via TR-FRET dual wavelength detection, and the percent of control (POC) calculated using a ratiometric emission factor. 100 POC was determined using no test compounds and 0 POC was determined using no enzyme. The POC values were fit to a 4-parameter logistic curve as a function of the concentration of the compound, and the IC50 value is the point where the curve crosses 50 POC.

FGFR3 = FGFR3 (Homo sapiens (Human), UniProt P22607); experiment: FGFR Enzyme Activity Assay (LanthaScreen TR-FRET), FGFR3; type: biochemical; conditions: 25 μM ATP, 10 minute incubation; read-out: FGFR3 Enz FRET IC50
FGFR3, sequence (P22607 397-806): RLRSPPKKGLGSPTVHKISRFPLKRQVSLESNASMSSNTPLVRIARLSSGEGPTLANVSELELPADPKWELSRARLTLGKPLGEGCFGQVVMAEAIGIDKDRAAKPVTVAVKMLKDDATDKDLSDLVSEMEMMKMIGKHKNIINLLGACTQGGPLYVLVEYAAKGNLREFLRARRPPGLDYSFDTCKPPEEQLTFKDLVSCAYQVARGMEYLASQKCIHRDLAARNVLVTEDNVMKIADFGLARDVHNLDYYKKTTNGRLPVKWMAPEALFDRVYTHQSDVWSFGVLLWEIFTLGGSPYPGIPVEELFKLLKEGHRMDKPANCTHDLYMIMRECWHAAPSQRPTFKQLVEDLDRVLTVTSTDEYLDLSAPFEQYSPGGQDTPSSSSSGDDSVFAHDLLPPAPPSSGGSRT
Procedure: FGFR3 kinase activity was measured by the Invitrogen LanthaScreen™ Assay technology which directly measures the amount of substrate phosphorylation by TR-FRET using a flourescently-labeled peptide and Europium-labeled antibody. Briefly, 750 pM N-terminal GST-HIS6 fusion protein with a 3C cleavage site recombinant human FGFR3 (amino acids R397-T806) (ProQinase Cat. No. 1068-0000-1) was incubated with 100 nM Alexa Fluor® 647-Poly-GT Peptide Substrate (Life Technologies Cat. No. PV5836) and 25 μM ATP along with test compound in a buffer consisting of 250 mM HEPES, 25 mM MgCl2, 0.05% TritonX-100, pH 7.5, and 2% DMSO. Compounds were typically prepared in a threefold serial dilution in DMSO and added to the assay to give the appropriate final concentration. After a 10 minute incubation at 22° C., an equal volume of 2 nM LanthaScreen® Eu-PY20 Antibody (Life Technologies Cat. No. PV5691) and 10 mM EDTA were added to quench the kinase reaction and start the detection reaction. After an additional 60 minute incubation at 22° C., the reaction was measured using a PerkinElmer EnVision multimode plate reader via TR-FRET dual wavelength detection, and the percent of control (POC) calculated using a ratiometric emission factor. 100 POC was determined using no test compounds and 0 POC was determined using no enzyme. The POC values were fit to a 4-parameter logistic curve as a function of the concentration of the compound, and the IC50 value is the point where the curve crosses 50 POC.

human wild type FGFR1 = human wild type FGFR1 (Homo sapiens (Human), UniProt P11362); experiment: FGFR1 pERK Cell Assay; type: cell-based; conditions: HEK-293 cells, 1 hour compound, 100 ng/ml human FGF-acidic; maximum concentration 5 μM
human wild type FGFR1, sequence (P11362 22-822): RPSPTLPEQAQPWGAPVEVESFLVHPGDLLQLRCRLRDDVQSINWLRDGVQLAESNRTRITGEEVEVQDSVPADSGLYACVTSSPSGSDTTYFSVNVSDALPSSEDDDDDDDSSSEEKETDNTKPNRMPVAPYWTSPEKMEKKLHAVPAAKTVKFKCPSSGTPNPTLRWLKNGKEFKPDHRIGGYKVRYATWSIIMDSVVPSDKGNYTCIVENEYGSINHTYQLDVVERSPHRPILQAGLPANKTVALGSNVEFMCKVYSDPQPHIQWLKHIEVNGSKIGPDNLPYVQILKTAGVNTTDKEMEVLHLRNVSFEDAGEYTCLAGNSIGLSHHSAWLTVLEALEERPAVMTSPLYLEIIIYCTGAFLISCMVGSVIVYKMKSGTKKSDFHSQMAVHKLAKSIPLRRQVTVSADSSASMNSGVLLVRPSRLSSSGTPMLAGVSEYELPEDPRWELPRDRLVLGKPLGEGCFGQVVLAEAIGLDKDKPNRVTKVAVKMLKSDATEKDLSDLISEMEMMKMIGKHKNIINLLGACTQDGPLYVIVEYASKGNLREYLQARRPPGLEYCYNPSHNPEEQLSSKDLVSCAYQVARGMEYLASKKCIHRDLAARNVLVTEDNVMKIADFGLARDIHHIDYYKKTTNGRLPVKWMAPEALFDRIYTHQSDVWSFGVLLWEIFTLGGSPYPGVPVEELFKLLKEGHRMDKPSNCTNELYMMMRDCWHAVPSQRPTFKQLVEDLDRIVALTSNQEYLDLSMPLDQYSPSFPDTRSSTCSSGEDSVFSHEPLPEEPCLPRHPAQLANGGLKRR
Procedure: HEK-293 cells transfected with doxycycline(dox)-inducible human wild type FGFR1 (SEQ ID NO: 1) were plated in a collagen or poly-D-lysine coated 96 well flat bottom plates at 4×10^5 cells/well in complete Dulbecco's Modified Eagle Medium (DMEM) containing 10% FBS and 1 μg/ml doxycycline and allowed to attach for 24 h at 37° C., 5% CO2. Cells were treated with compound using 1:3 serial dilutions with a maximum final concentration of 5 μM. Compound was incubated on cells for 1 hour at 37° C., 5% CO2. Cells were then stimulated with a final concentration of 100 ng/ml human FGF-acidic (R&D Systems Cat number 232-FA/CF) for 5 minutes at 37° C., 5% CO2. Medium was removed, and cells were lysed with lysis buffer containing phosphatase and protease inhibitors. Phospho ERK1/2 was measured using the Meso Scale Discovery sandwich assay (Meso Scale Discovery cat. no. K151DWD). The assay captures phospho ERK1/2 and detects with a sulfo-tagged total ERK1/2 antibody. The chemiluminescent signal was read on the Sector Imager Plate reader. 100 POC was determined using no test compound and 0 POC was determined using a control compound. The POC values were fit to a 4-parameter logistic curve as a function of the concentration of the compound, and the IC50 value is the point where the curve crosses 50 POC.

phosphorylated FGFR3, sequence (P22607 449-759): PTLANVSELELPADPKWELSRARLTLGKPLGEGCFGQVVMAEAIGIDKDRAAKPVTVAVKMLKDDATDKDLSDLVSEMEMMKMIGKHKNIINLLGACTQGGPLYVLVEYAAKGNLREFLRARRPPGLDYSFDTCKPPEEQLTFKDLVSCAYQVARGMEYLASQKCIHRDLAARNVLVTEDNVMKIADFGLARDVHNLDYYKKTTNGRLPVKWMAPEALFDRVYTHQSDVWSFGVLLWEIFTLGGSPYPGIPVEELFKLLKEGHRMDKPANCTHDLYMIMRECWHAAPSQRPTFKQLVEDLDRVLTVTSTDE

| Structure (SMILES) | IC50 (phosphorylated FGFR3) [nM] | IC50 [1] [nM] | IC50 (FGFR3) [nM] | IC50 (human wild type FGFR1) [nM] |
| --- | --- | --- | --- | --- |
| COc1cc(Nc2ccc3ncc(-c4cnn(C5CCN(C(=O)C6(F)CN(C(=O)/C=C/CN(C)C)C6)CC5)c4C)nc3c2)cc(OC)c1 [Example 17, (E)-1-(3-(4-(4-(7-((3,5-dimethoxyphenyl)amino)-quinoxalin-2-yl)-5-methyl-1H-pyrazol-1-yl)piperi-dine-1-carbonyl)-3-fluoroazetidin-1-yl)-4-(dimethylamino)but-2-en-1-one] | 5 | 376 | 48 | 423 |
| COc1cc(Nc2ccc3ncc(-c4cnn([C@@H]5CCN(C(=O)C6(F)CN(C(=O)/C=C/CN(C)C)C6)C5)c4)nc3c2)cc(OC)c1 [Example 19, (R,E)-1-(3-(3-(4-(7-((3,5-dimethoxyphenyl)amino)-quinoxalin-2-yl)-1H-pyrazol-1-yl)pyrrolidine-1-carbonyl)-3-fluoro-azetidin-1-yl)-4-(dimethyl-amino)but-2-en-1-one] | 4 | 288 | 50 | 1280 |
| COc1cc(Nc2ccc3ncc(-c4cnn([C@@H]5CCN(C(=O)C6CN(C(=O)/C=C/CN(C)C)C6)C5)c4)nc3c2)cc(OC)c1 [Example 20, (R,E)-1-(3-(3-(4-(7-((3,5-dimethoxyphenyl)amino)-quinoxalin-2-yl)-1H-pyrazol-1-yl)pyrrolidine-1-carbonyl)azetidin-1-yl)-4-(dimethylamino)but-2-en-1-one] | 5 | 194 | 42 | ≥ 5000 |
| C=CC(=O)N1CC(C(=O)N2CCC(n3cc(-c4cnc5ccc(Nc6cc(OC)cc(OC)c6)cc5n4)cn3)CC2)C1 [Example 1, 1-(3-(4-(4-(7-((3,5-dimethoxyphenyl)amino)quinoxalin-2-yl)-1H-pyrazol-1-yl)piperidine-1-carbonyl)azetidin-1-yl)prop-2-en-1-one] | 2 | 54 | 9 | 507 |
| C=CC(=O)N1CC(C(=O)N2CCN(c3ccc(-c4cnc5ccc(Nc6cc(OC)cc(OC)c6)cc5n4)cn3)CC2)C1 [Example 5, 1-(3-(4-(5-(7-((3,5-dimethoxyphenyl)amino)-quinoxalin-2-yl)pyridin-2-yl)piperazine-1-carbonyl)azetidin-1-yl)-prop-2-en-1-one] | 59 | 448 | 272 | 2690 |
| C=CC(=O)N1CC[C@@H](C(=O)N2CCC(n3cc(-c4cnc5ccc(Nc6cc(OC)cc(OC)c6)cc5n4)cn3)CC2)C1 [Example 2, (R)-1-(3-(4-(4-(7-((3,5-dimethoxyphenyl)amino)-quinoxalin-2-yl)-1H-pyrazol-1-yl)piperidine-1-carbonyl)pyrrolidin-1-yl)-prop-2-en-1-one] | 4 | 49 | 10 | 852 |
| C=CC(=O)N1CC(F)(C(=O)N2CCN(c3cc(C)c(-c4cnc5ccc(Nc6cc(OC)cc(OC)c6)cc5n4)cn3)CC2)C1 [Example 15, 1-(3-(4-(5-(7-((3,5-dimethoxyphenyl)amino)-quinoxalin-2-yl)-4-methylpyridin-2-yl)-piperazine-1-carbonyl)-3-fluoroazetidin-1-yl)prop-2-en-1-one] | 116 | 5000 | 5000 | ≥ 5000 |
| COc1cc(Nc2ccc3ncc(-c4cnn(C5CCN(C(=O)C6(F)CN(C(=O)/C=C/CN(C)C)C6)CC5)c4)nc3c2)cc(OC)c1 [Example 10, (E)-1-(3-(4-(4-(7-((3,5-dimethoxyphenyl)amino)-quinoxalin-2-yl)-1H-pyrazol-1-yl)piperidine-1-carbonyl)-3-fluoro-azetidin-1-yl)-4-(dimethylamino)but-2-en-1-one] | 3 | 35 | 16 | 134 |

The remaining lines, values ahead:

| IC50 (phosphorylated FGFR3) [nM] | IC50 [1] [nM] | IC50 (FGFR3) [nM] | IC50 (human wild type FGFR1) [nM] | Structure (SMILES) |
| --- | --- | --- | --- | --- |
| 6 | 10 | 2 | 128 | C=CC(=O)N1CC(O)(C(=O)N2CCC(n3cc(-c4cnc5ccc(N(C)c6cc(OC)cc(OC)c6)cc5n4)cn3)CC2)C1 [Example 27, 1-(3-(4-(4-(7-((3,5-dimethoxyphenyl)(methyl)amino)quinoxalin-2-yl)-1H-pyrazol-1-yl)piperidine-1-carbonyl)-3-hydroxyazetidin-1-yl)prop-2-en-1-one] |
| 6 | 118 | 14 | 1650 | C=CC(=O)N1CC(O)(C(=O)N2CCC(n3cc(-c4cnc5ccc(Nc6cc(OC)cc(OC)c6)cc5n4)cn3)CC2)C1 [Example 26, 1-(3-(4-(4-(7-((3,5-dimethoxyphenyl)amino)quinoxalin-2-yl)-1H-pyrazol-1-yl)piperidine-1-carbonyl)-3-hydroxyazetidin-1-yl)prop-2-en-1-one] |
| 3 | 147 | 26 | 225 | C=CC(=O)N1CC(CN2CCC(n3cc(-c4cnc5ccc(Nc6cc(OC)cc(OC)c6)cc5n4)cn3)CC2)C1 [Example 30, 1-(3-((4-(4-(7-((3,5-dimethoxyphenyl)amino)quinoxalin-2-yl)-1H-pyrazol-1-yl)piperidin-1-yl)methyl)azetidin-1-yl)prop-2-en-1-one] |
| 3 | 414 | 40 | 206 | C=CC(=O)N1CC(CN2CCC(n3cc(-c4cnc5ccc(Nc6cc(OC)cc(OC)c6)cc5n4)cn3)CC2)(OC)C1 [Example 29, 1-(3-((4-(4-(7-((3,5-dimethoxyphenyl)amino)quinoxalin-2-yl)-1H-pyrazol-1-yl)piperidin-1-yl)methyl)-3-methoxyazetidin-1-yl)prop-2-en-1-one] |
